The subject of series [1] is motor coordination of mice. Description: Rotarod test (acute neurotoxicity). As to conditions: i.p. For orientation: Falling from the rotarod earlier than controls is read as motor impairment.
Description: Additionally, their possible acute neurotoxic effects were evaluated in the rotarod test.
Acute neurotoxicity of the compounds obtained after i.p. administration was tested in mice using the rotarod test according to the methodology described earlier [37].
Series [2] deals with maximal electroshock-induced tonic-clonic seizures in mice. Description: Maximal electroshock-induced seizure (MES) test. The note with it: Mus musculus, ip, read-out: ED50 ± SEM, anticonvulsant activity (MES test). Type of series: in vivo. As for the experimental part: As the sodium channel ligands are recognized as antiepileptic agents and the affinity of 3 and 4 against VGSCs was still in the beneficial range, the investigated 1,2,4-triazole derivatives were examined for their antiepileptic potential using in the vivo model of tonic–clonic seizures in mice. The protective effect of compounds 3 and 4 against maximal electroshock-induced seizures (MES) was evaluated in a wide range of doses (producing 0% to 100% protection) that enabled us to calculate corresponding ED50 values.
Anticonvulsant activity of the investigated compounds was determined according to the same procedure as described in [11, 15, 18]. Adult albino mice weighing 20–25 g were used in the experiment. The animals were randomly divided into groups of 8 mice and kept in colony cages with free access to water and food. Test compounds were administered intraperitoneally, suspended in a 1% solution of Tween 80 in distilled water in a volume of 5 mL/kg. Electroconvulsions were produced with alternating current (0.2 s stimulus duration; 500 V, 50 Hz, 25 mA constant current) delivered through ear clip electrodes by a type 221 rodent shock generator (Hugo Sachs Elektronik, Freiburg, Germany). Absence of tonic extension of the hind limb was assumed as the criterion of anticonvulsant activity. ED50 values were calculated using Litchfield and Wilcoxon’s log-probit method.
(In the maximal electroshock model the usual endpoint is tonic extension of the hind limbs.)

Series [3] has as its target Na+ channel (site 2), batrachotoxin-binding sites of VGSCs. The note with it: [3H]batrachotoxin displacement, rat cerebral cortex membranes, 8 concentrations 0.1-300 µM; read-out: Na+ Channel (Site 2) Affinity IC50 ± SEM.
Series [4] has the same target. The note with it: cited from earlier work.
Series [5] relates to maximal electroshock-induced tonic-clonic seizures in mice. On the set-up: method as in PMID 30594731. As to conditions: cited from earlier work.

One may read the ED50 as the dose that gives a 50% effect, or the effect in half of the subjects. For orientation: IC50 means the concentration that inhibits the measured activity by half. One may read the melting point as the temperature of the solid-liquid transition.

Read-outs that look alike come from different tables or passages of the source.

`CCCCCCn1c(CCc2cccc(Cl)c2)n[nH]c1=S` [Compound 4, 5-[2-(3-Chlorophenyl)ethyl]-4-hexyl-2,4-dihydro-3H-1,2,4-triazole-3-thione]: the melting point was in the range of 84 to 86 °C. Besides, in series [1] (pretreatment time 15 min), the “PI (TD50/ED50)” value is on record as 6.2. The “PI (TD50/ED50)” value in series [1] (pretreatment time 30 min) was 5.3. Further, the “PI (TD50/ED50)” value in series [1] (pretreatment time 60 min) is listed as 3.2. The “PI (TD50/ED50)” value in series [1] (pretreatment time 120 min) is 1.9. The “median toxic doses (TD50) in the rotarod test” value in series [1] (pretreatment time not stated, highest value of the series) was at most 710.5 mg/kg. Also, the median effective dose (ED50) in series [2] (pretreatment time 15 min) is 115 ± 7.6 mg/kg. Moreover, the ED50 in series [2] (pretreatment time 30 min) was determined as 129 ± 21.1 mg/kg. The ED50 in series [2] (pretreatment time 60 min) came out at 215 ± 21.1 mg/kg. Moreover, the ED50 in series [2] (pretreatment time 120 min) was 255 ± 22.5 mg/kg. Further, the IC50 in series [3] amounted to 18.9 ± 0.3 µM.

As for `CCCCn1c(CCc2cccc(Cl)c2)n[nH]c1=S` [Compound 3, 4-Butyl-5-[2-(3-chlorophenyl)ethyl]-2,4-dihydro-3H-1,2,4-triazole-3-thione], the melting point fell in the range of 102 to 104 °C. For the same compound, in series [1] (pretreatment time 15 min), the “PI (TD50/ED50)” value is on record as 2.4. Further, the “PI (TD50/ED50)” value in series [1] (pretreatment time 30 min) worked out at 3.4. Moreover, the “PI (TD50/ED50)” value in series [1] (pretreatment time 60 min) was 2.3. For the same compound, in series [1] (pretreatment time 120 min), the “PI (TD50/ED50)” value worked out at 1.7. Moreover, in series [2] (pretreatment time 15 min), the ED50 was 139 ± 31.4 mg/kg. In series [2] (pretreatment time 30 min), the ED50 came out at 96.6 ± 14.8 mg/kg. Also, the ED50 in series [2] (pretreatment time 60 min) came to 148 ± 17.1 mg/kg. In addition, the ED50 in series [2] (pretreatment time 120 min) amounted to 195 ± 18.9 mg/kg. For the same compound, the half-inhibitory concentration (IC50) in series [3] amounted to 11.9 ± 0.4 µM.

With `COc1ccc(C(=O)O[C@H]2CC[C@@]3(C)[C@@H]4CC[C@H]5[C@]6(O)C[C@H](O)[C@@]7(O)[C@@H](CN8C[C@@H](C)CC[C@H]8[C@@]7(C)O)[C@]6(O)C[C@@]53O[C@]24O)cc1OC` [Veratridine, reference compound], the IC50 in series [3] was 17.8 ± 0.9 µM.

In the case of `CCCCn1c(Cc2cccc(Cl)c2)n[nH]c1=S` [Compound 1], the IC50 in series [4] (Figure 1, methylene-linker 3-chlorophenyl analogs, read-out: IC50 (VGSC affinity)) is 15.8 µM.

With `CCCCCCn1c(Cc2cccc(Cl)c2)n[nH]c1=S` [Compound 2, 5-(3-chlorobenzyl)-4-hexyl-1,2,4-triazole-3-thione], the IC50 in series [4] (read-out: IC50 (blocked the VGSCs)) is 6.17 µM.

Regarding `CCCC(CCC)C(=O)O` [Valproate], the “ED50 ± SEM, anticonvulsant activity (MES test)” value in series [5] (pretreatment time 15 min) is 189.0 ± 17.3 mg/kg; in series [5] (pretreatment time 30 min), 216.9 ± 9.4 mg/kg; in series [5] (pretreatment time 60 min) it was 218.4 ± 18.9 mg/kg; in series [5] (pretreatment time 120 min), 246.6 ± 21.4 mg/kg.

The values are drawn from PMC10343781, “Effect of Linker Elongation on the VGSC Affinity and Anticonvulsant Activity among 4-Alkyl-5-aryl-1,2,4-triazole-3-thione Derivatives” (Molecules, 2023).
